Data on 18 compounds can be found in ChEMBL document CHEMBL1146026, “Novel, potent, selective, and orally bioavailable human betaII-tryptase inhibitors” (Bioorg Med Chem Lett, 2006).

Some results are limits rather than exact numbers.

For orientation: Ki means the dissociation constant of the complex between target and ligand, obtained from inhibition or displacement. The term Cmax denotes the peak of the concentration-time curve. Broadly, the AUC is the area under the concentration-time curve, a measure of exposure. For orientation: bioavailability means dose-corrected exposure relative to a reference, in per cent.

In data set [1] the target is T1, Tryptase beta-1 (Homo sapiens, UniProt Q15661). The data set is described as follows: Binding affinity to human tryptase beta2.
For the next data set, the target named is Trypsin (Homo sapiens, UniProt P07477+P07478+P35030). The data set is described as follows: Binding affinity to trypsin. The format is protein assay.
Data set [2] can be described thus: Binding affinity to elastase. More on the design: species or system Homo sapiens.
Data set [3] in a line: Cmax in iv or po dosed rat. The data set is classed as ADME, organism-based. The conditions noted are these: in vivo.
Data set [4] in a line: Clearance in iv or po dosed rat. The data set is classed as ADME, organism-based. Particulars: in vivo.
Data set [5] is described as follows: Volume of distribution in iv or po dosed rat. The format is ADME, organism-based. Particulars: in vivo, read-out: Vc.
Data set [6] concerns the target T2, Tryptase (Mus musculus, UniProt Q02844).
T2 sequence (Q02844 whole entry): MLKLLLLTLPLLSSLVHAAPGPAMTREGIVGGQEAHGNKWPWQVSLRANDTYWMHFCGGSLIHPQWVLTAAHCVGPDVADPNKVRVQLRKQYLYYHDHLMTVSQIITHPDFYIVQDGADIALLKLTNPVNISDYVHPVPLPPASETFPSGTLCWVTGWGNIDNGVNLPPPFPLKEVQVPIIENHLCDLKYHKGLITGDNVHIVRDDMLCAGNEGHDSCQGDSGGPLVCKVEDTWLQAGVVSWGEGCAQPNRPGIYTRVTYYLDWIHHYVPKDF
As to the kind of experiment: Binding affinity to mouse tryptase.

The target in data set [7] is T3, Tryptase (Rattus norvegicus, UniProt P27435).
T3 sequence (P27435 whole entry): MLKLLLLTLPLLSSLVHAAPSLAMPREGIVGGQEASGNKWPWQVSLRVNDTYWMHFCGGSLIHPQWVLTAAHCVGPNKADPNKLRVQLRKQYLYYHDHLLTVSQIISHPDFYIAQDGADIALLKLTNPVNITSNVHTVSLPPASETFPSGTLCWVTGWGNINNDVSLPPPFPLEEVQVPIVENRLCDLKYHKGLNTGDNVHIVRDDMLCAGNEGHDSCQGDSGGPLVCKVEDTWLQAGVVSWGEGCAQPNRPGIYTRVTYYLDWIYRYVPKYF
The data set is described as follows: Binding affinity to rat tryptase.

Data set [8] addresses T1, Tryptase beta-1. The data set is described as follows: Binding affinity to recombinant cynomolgus monkey tryptase.
In data set [9] the target is Tryptase (Canis lupus familiaris, UniProt P15944). The data set is described as follows: Binding affinity to dog tryptase.
Data set [10] is described as follows: Mean residence time in iv or po dosed rat. The format is ADME, organism-based. Particulars: in vivo, read-out: Vdss.
Data set [11] can be described thus: AUC in iv or po dosed rat. The format is ADME, organism-based. The conditions noted are these: plasma.
Data set [12] can be described thus: Oral absorption in iv or po dosed rat. The format is ADME, organism-based. The conditions noted are these: in vivo.
A short description of data set [13]: Oral bioavailability in iv or po dosed rat. The data set is classed as ADME, organism-based. The conditions noted are these: in vivo.
Data set [14] can be described thus: Bioavailability in ip dosed mouse. The format is ADME, organism-based. Particulars: in vivo.

T1 sequence (Q15661 whole entry): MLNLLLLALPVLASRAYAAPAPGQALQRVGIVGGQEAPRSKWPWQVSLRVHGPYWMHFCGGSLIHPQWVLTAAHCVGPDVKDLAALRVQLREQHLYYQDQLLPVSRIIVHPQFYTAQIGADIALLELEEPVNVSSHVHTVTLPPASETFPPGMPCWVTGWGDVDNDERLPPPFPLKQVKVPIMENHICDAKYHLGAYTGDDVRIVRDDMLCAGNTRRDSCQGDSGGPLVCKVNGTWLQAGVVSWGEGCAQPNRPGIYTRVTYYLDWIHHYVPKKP
Chain of Tryptase (Canis lupus familiaris, UniProt P15944) (P15944 whole entry): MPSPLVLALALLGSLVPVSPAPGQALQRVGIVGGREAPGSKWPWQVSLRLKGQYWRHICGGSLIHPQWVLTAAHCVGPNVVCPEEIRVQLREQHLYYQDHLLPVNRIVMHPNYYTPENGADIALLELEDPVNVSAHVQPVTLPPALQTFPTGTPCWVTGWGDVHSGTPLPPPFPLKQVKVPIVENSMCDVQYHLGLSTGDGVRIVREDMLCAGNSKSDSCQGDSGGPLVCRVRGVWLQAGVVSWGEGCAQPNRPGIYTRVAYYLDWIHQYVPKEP

Regarding `NCCCC[C@H](NC(=O)OCc1ccccc1)C(=O)c1noc(Cc2ccc(OCCc3cccc(Cl)c3)cc2)n1`, the Ki on Tryptase beta-1 [1] came to 13 nM. In addition, the Ki app on Trypsin was found to be 190 nM.

With `NCCCC[C@H](NC(=O)OCc1ccccc1)C(=O)c1noc(Cc2ccc(OCCCc3ccccc3)cc2)n1`, the Ki at Tryptase beta-1 [1] was 25 nM. On Trypsin, this compound had a Ki app of 41 nM.

With `NCCCC[C@H](NC(=O)OCc1ccccc1)C(=O)c1noc(Cc2ccc(OCc3ccccc3)cc2)n1`, the Ki on Tryptase beta-1 [1] came to 180 nM. Also, the Ki app on Trypsin is 24 nM.

`COc1ccc(CCOc2ccc(Cc3nc(C(=O)[C@H](CCCCN)NC(=O)OCc4ccccc4)no3)cc2)cc1OC` registered a Ki on Tryptase beta-1 [1] of 24 nM. Also, the Ki app on Trypsin was 11 nM.

In the case of `NCCCC[C@H](NC(=O)OCc1ccccc1)C(=O)c1noc(Cc2ccc(OCCC3CCCCC3)cc2)n1`, on Tryptase beta-1 [1], the affinity corresponds to a Ki of 1100 nM. At Trypsin, this compound yielded a Ki app of 1000 nM.

With `NCCCC[C@H](NC(=O)OCc1ccccc1)C(=O)c1noc(Cc2ccc(OCCc3cccc4ccccc34)cc2)n1`, the inhibition constant Ki on Tryptase beta-1 [1] stood at 78 nM. On Trypsin, this compound yielded a Ki app of 95 nM.

For `CCOC(=O)N[C@@H](CCCCN)C(=O)c1noc(Cc2ccc(OCCc3ccccc3)cc2)n1`, the Ki is greater than 150000 nM in data set [2]; 43.5 nM at Tryptase [6]; 5.5 nM on Tryptase [7]; 46.5 nM at Tryptase beta-1 [8]; 380 nM on Tryptase [9]. The peak level in data set [3] (Cmax) was 590 nM. Besides, the clearance in data set [4] came to 93 mL/min/kg. In addition, the Vd in data set [5] turned out to be 0.91 L/kg; in data set [10], 7 L/kg. Moreover, the AUC in data set [11] was 0.183 µM·h. The Fa in data set [12] worked out at 18%. Also, the bioavailability in data set [13] amounted to 8.4%; in data set [14] it was 68%.

`COc1ccc(CCOc2ccc(Cc3nc(C(=O)[C@H](CCCCN)NC(=O)OCc4ccccc4)no3)cc2)cc1` came in with an inhibitory constant (Ki) at Tryptase beta-1 [1] of 19 nM. For the same compound, the Ki app at Trypsin amounted to 34 nM.

`NCCCC[C@H](NC(=O)OCc1ccccc1)C(=O)c1noc(Cc2ccc(OCCc3ccc(Cl)c(Cl)c3)cc2)n1` registered a Ki at Tryptase beta-1 [1] of 10 nM. This compound registered a Ki app on Trypsin of 280 nM.

`NCCCC[C@H](NC(=O)OCc1ccccc1)C(=O)c1noc(Cc2ccc(OCCc3ccc(F)cc3)cc2)n1`: at Tryptase beta-1 [1], the inhibitory constant (Ki) is 16 nM. Besides, the Ki app on Trypsin came to 110 nM.

`NCCCC[C@H](NC(=O)OCc1ccccc1)C(=O)c1noc(Cc2cccc(OCCCc3ccccc3)c2)n1` gave a Ki on Tryptase beta-1 [1] of 120 nM. This compound also yielded a Ki app on Trypsin of 92 nM.

The compound `NCCC[C@H](NC(=O)OCc1ccccc1)C(=O)c1noc(Cc2ccccc2)n1` showed an inhibitory constant (Ki) on Tryptase beta-1 [1] of 2700 nM. Moreover, the Ki app at Trypsin stood at 68 nM.

For the compound `NCCCC[C@H](NC(=O)OCc1ccccc1)C(=O)c1noc(Cc2ccc(OCCc3ccc(Cl)cc3)cc2)n1`, the Ki at Tryptase beta-1 [1] amounted to 14 nM. The compound further registered a Ki app at Trypsin of 270 nM.

For the compound `COc1cccc(CCOc2ccc(Cc3nc(C(=O)[C@H](CCCCN)NC(=O)OCc4ccccc4)no3)cc2)c1`, the Ki at Tryptase beta-1 [1] is 41 nM. The Ki app at Trypsin was 59 nM.

For the compound `NCCCC[C@H](NC(=O)OCc1ccccc1)C(=O)c1noc(Cc2ccc(OCCc3ccc(Cl)cc3Cl)cc2)n1`, at Tryptase beta-1 [1], the Ki was 96 nM. Moreover, the Ki app on Trypsin was 410 nM.

At Tryptase beta-1 [1], `NCCCC[C@H](NC(=O)OCc1ccccc1)C(=O)c1noc(Cc2ccc(OCCc3ccc4ccccc4c3)cc2)n1` displayed a Ki of 27 nM. For the same compound, the Ki app at Trypsin was found to be 140 nM.

`NCCCC[C@H](NC(=O)OCc1ccccc1)C(=O)c1noc(Cc2cccc(OCCc3ccccc3)c2)n1`: the inhibition constant Ki at Tryptase beta-1 [1] was determined as 360 nM. Besides, the Ki app on Trypsin was 82 nM.

For `NCCCC[C@H](NC(=O)OCc1ccccc1)C(=O)c1noc(Cc2ccc(OCCc3ccccc3)cc2)n1`, on Trypsin, the Ki app worked out at 35 nM.
